Measurements reported in US9181218B2, “Compounds for improved stem cell differentiation into hepatocytes” (Hoffmann-La Roche Inc., priority 2013, dated 2015).

Test system: interferon-stimulated genes (ISGs)
Assay: Microarray analysis of iCell Hepatocytes treated with the compound of example 1
Assay type: cell-based, Human
Excerpt: iCell Hepatocytes treated with the compound of example 1 results in the up and down-regulation of a host of genes; including a kinetic effect on interferon-stimulated gene (ISGs) expression. See FIGS. 15-I and 15-II, 16-I and 16-II and 18 and Table 1.

O=C(NCc1cccc(F)c1)c1cccc2nc(-c3c(NC[C@@H](O)c4ccccc4)cc[nH]c3=O)[nH]c12 [Example 1, 2-[4-((S)-2-hydroxy-2-phenyl-ethylamino)-2-oxo-1,2-dihydro-pyridin-3-yl]-3H-benzoimidazole-4-carboxylic acid 3-fluoro-benzylamide]
JAK2 Raw Est Fold Change (DAY 7): 1.39 | JUNB Raw Est Fold Change (DAY 7): −8.16 | KIAA0040 Raw Est Fold Change (DAY 7): −1.76 | KIF5C Raw Est Fold Change (DAY 7): −4.32 | KPNB1 Raw Est Fold Change (DAY 7): −1.34 | LRP4 Raw Est Fold Change (DAY 7): −2.80 | LTBP2 Raw Est Fold Change (DAY 7): −2.94 | LYN Raw Est Fold Change (DAY 7): −1.71 | MAFB Raw Est Fold Change (DAY 7): 6.31 | MAFK Raw Est Fold Change (DAY 7): −1.70 | MAP3K8 Raw Est Fold Change (DAY 7): −6.22 | MAX Raw Est Fold Change (DAY 7): −1.95 | MCL1 Raw Est Fold Change (DAY 7): −1.33 | MSR1 Raw Est Fold Change (DAY 7): 16.00 | MT1F Raw Est Fold Change (DAY 7): 2.56 | MTHFD2L Raw Est Fold Change (DAY 7): −5.12 | MTMR1 Raw Est Fold Change (DAY 7): −1.20 | MYC Raw Est Fold Change (DAY 7): −7.27 | MYD88 Raw Est Fold Change (DAY 7): 1.19 | MYOM2 Raw Est Fold Change (DAY 7): 1.59 | MYT1 Raw Est Fold Change (DAY 7): −3.88 | NEXN Raw Est Fold Change (DAY 7): −2.35 | NFE2 Raw Est Fold Change (DAY 7): −5.79 | NFIL3 Raw Est Fold Change (DAY 7): −1.60 | NGFB Raw Est Fold Change (DAY 7): 1.97 | NLRC5 Raw Est Fold Change (DAY 7): −3.27 | NMI Raw Est Fold Change (DAY 7): 1.34 | NPAS2 Raw Est Fold Change (DAY 7): −4.43 | OPTN Raw Est Fold Change (DAY 7): 1.28 | PADI2 Raw Est Fold Change (DAY 7): 4.13 | PARP14 Raw Est Fold Change (DAY 7): 1.33 | PCK2 Raw Est Fold Change (DAY 7): 8.00 | PCMT1 Raw Est Fold Change (DAY 7): −1.45 | PCTK3 Raw Est Fold Change (DAY 7): 2.27 | PDGFRL Raw Est Fold Change (DAY 7): −3.16 | PEX26 Raw Est Fold Change (DAY 7): 1.38 | PHF11 Raw Est Fold Change (DAY 7): −2.75 | PHF15 Raw Est Fold Change (DAY 7): −1.69 | PHLDA1 Raw Est Fold Change (DAY 7): −9.08 | PI4K2B Raw Est Fold Change (DAY 7): 1.41 | PIM3 Raw Est Fold Change (DAY 7): −2.64 | PLAC8 Raw Est Fold Change (DAY 7): 5.43 | PLAUR Raw Est Fold Change (DAY 7): −2.56 | PLSCR1 Raw Est Fold Change (DAY 7): −2.59 | PML Raw Est Fold Change (DAY 7): −2.58 | PON1 Raw Est Fold Change (DAY 7): 5.18 | PON2 Raw Est Fold Change (DAY 7): −1.39 | PPIC Raw Est Fold Change (DAY 7): −2.26 | PSMB10 Raw Est Fold Change (DAY 7): 1.91 | PTEN Raw Est Fold Change (DAY 7): −1.44 | PUS1 Raw Est Fold Change (DAY 7): −1.41 | PXK Raw Est Fold Change (DAY 7): −1.23 | RAB27A Raw Est Fold Change (DAY 7): −5.10 | RAN Raw Est Fold Change (DAY 7): −1.29 | RBMS1 Raw Est Fold Change (DAY 7): −3.48 | RECQL Raw Est Fold Change (DAY 7): −1.66 | RIPK2 Raw Est Fold Change (DAY 7): −1.45 | RPL22 Raw Est Fold Change (DAY 7): 3.02 | RSAD2 Raw Est Fold Change (DAY 7): 5.52 | RXRA Raw Est Fold Change (DAY 7): 1.28 | SAA1 Raw Est Fold Change (DAY 7): −1.51 | SAMD9L Raw Est Fold Change (DAY 7): 2.42 | SCARB2 Raw Est Fold Change (DAY 7): 1.64 | SDC2 Raw Est Fold Change (DAY 7): 1.66 | SELL Raw Est Fold Change (DAY 7): 3.83 | SELP Raw Est Fold Change (DAY 7): 5.95 | SERPINB9 Raw Est Fold Change (DAY 7): −1.86 | SF3A1 Raw Est Fold Change (DAY 7): 1.26 | SFPQ Raw Est Fold Change (DAY 7): −1.57 | SHMT2 Raw Est Fold Change (DAY 7): 1.44 | SLC7A5 Raw Est Fold Change (DAY 7): 1.78 | SLC10A1 Raw Est Fold Change (DAY 7): 10.61 | SLC15A2 Raw Est Fold Change (DAY 7): −1.52 | SLC20A1 Raw Est Fold Change (DAY 7): 1.90 | SLC25A28 Raw Est Fold Change (DAY 7): −1.47 | SLC30A1 Raw Est Fold Change (DAY 7): 2.66 | SLFN12 Raw Est Fold Change (DAY 7): −1.92 | SOAT2 Raw Est Fold Change (DAY 7): 11.97 | SOCS1 Raw Est Fold Change (DAY 7): −42.96 | SOCS3 Raw Est Fold Change (DAY 7): −17.74 | SPSB1 Raw Est Fold Change (DAY 7): −2.63 | SPTLC2 Raw Est Fold Change (DAY 7): −1.49 | SRGAP2 Raw Est Fold Change (DAY 7): 1.95 | SSBP3 Raw Est Fold Change (DAY 7): 1.49 | SSR1 Raw Est Fold Change (DAY 7): −1.71 | STAT1 Raw Est Fold Change (DAY 7): −4.03 | STEAP4 Raw Est Fold Change (DAY 7): −1275.83 | STK39 Raw Est Fold Change (DAY 7): −1.88 | TAP1 Raw Est Fold Change (DAY 7): −1.72 | TAP2 Raw Est Fold Change (DAY 7): −2.02 | TARBP1 Raw Est Fold Change (DAY 7): −1.18 | TCF7L2 Raw Est Fold Change (DAY 7): −1.57 | TEAD4 Raw Est Fold Change (DAY 7): −6.47 | TFDP2 Raw Est Fold Change (DAY 7): 1.26 | TFEC Raw Est Fold Change (DAY 7): 7.83 | TFPI Raw Est Fold Change (DAY 7): −1.80 | THBD Raw Est Fold Change (DAY 7): −6.70 | TIMP1 Raw Est Fold Change (DAY 7): −11.92 | TMEM2 Raw Est Fold Change (DAY 7): −3.07 | TMEM49 Raw Est Fold Change (DAY 7): −1.98 | TNFSF14 Raw Est Fold Change (DAY 7): −2.68 | TOR1B Raw Est Fold Change (DAY 7): −1.39 | TPM1 Raw Est Fold Change (DAY 7): 1.77 | TRIB3 Raw Est Fold Change (DAY 7): 1.84 | TRIM14 Raw Est Fold Change (DAY 7): 1.68 | TXNIP Raw Est Fold Change (DAY 7): −7.72 | UBE1L Raw Est Fold Change (DAY 7): 1.65 | UBE2S Raw Est Fold Change (DAY 7): −1.95 | ULK4 Raw Est Fold Change (DAY 7): −4.12 | UPP2 Raw Est Fold Change (DAY 7): 16.78 | USP25 Raw Est Fold Change (DAY 7): 1.84 | WARS Raw Est Fold Change (DAY 7): −1.50 | WAS Raw Est Fold Change (DAY 7): 3.44 | XRCC6BP1 Raw Est Fold Change (DAY 7): 1.33 | ZC3HAV1 Raw Est Fold Change (DAY 7): −1.57 | ZNF24 Raw Est Fold Change (DAY 7): −1.16 | ZNF276 Raw Est Fold Change (DAY 7): 1.44 | ZNF313 Raw Est Fold Change (DAY 7): 1.31 | interferon-stimulated genes (ISGs) expression (microarray heat map, FIG. 15): down-regulated interferon-stimulated genes (ISGs) as early as 2 hr | CREB3L1 expression (microarray, FIG. 15): down-regulated as early as 2 hr post treatment | SLC10A1 expression (microarray, FIG. 15): up-regulated at 7 day post-treatment
